Marks after values point to notes of the source that are not given here.
Key:
HT-29 cells [1] = test: Intracellular trapping of the radioconjugates in living HT-29 cells (GPC, SDS-PAGE); type: cell-based, human; settings: live HT-29 cells, GPC and SDS-PAGE
Experimental: Intracellular Trapping of the Radioconjugates in Living HT-29 Cells
To the HT-29 cells (1×10^6/well) seeded in 6-well plates was added the radioconjugates (0.74 MBq, 20 μCi) in 1 mL of cell culture medium. The cells were incubated at 37° C. for 4 hours and the medium was removed by vacuum followed washing with PBS (2×2 mL). The cells (˜3×10^6) were trypsinized and combined in microcentrifuge. The RIPA buffer (100 μL) containing Halttmprotease inhibitor (100×, 1 μL) was added to the cell pellet and vigorously vortexed for 1 minute. The suspension was incubated on ice for 15 minutes and centrifuged to remove the pellet. The supernatant (80 μL) was equally divided into two portions. The first portion (40 μL) was directly analyzed by radioactive-GPC with a flow rate of 0.6 mL/minute (40% ACN in PBS containing 0.1% sodium azide). The second portion (40 μL) of the cell lysate was mixed with Novex Tris-Glycine SDS sample buffer (2×) (40 μL) and incubated for another 15 minutes. The mixture (30 μL) was loaded onto a Novex 16% tris-glycine gel and analyzed by SDS-PAGE at 110 V for 90 minutes. The autoradiograph of the SDS-PAGE was performed as described above.

HT-29 xenograft tumors [2] = test: Biodistribution study in HT-29 xenograft mouse model; type: in vivo, mice; settings: HT-29 xenograft, by 24 hours
Experimental: Female SCID mice (5 weeks of age) received subcutaneous injections of HT-29 cells (5×10^6) suspended in Matrigel® into the flanks. When the tumor size reached 80 mm^3 (two weeks after injection), the mice were randomized into three groups and intravenously injected with 10 μCi (0.37 MBq) of the purified ^177Lu labeled conjugates via tail vein. The mice were sacrificed and the tissues were excised at 4, 24, and 72 hours post-injection time points. The blood, tumor, and excised tissues were weighed. The radioactivity for each sample was measured using a gamma counter. The percentage injected dose per gram (% ID/g) and the radioactivity ratios between tumor and non-targeted tissues were calculated.

[3] = Distribution coefficient (Log D7.4) of the conjugates; type: physicochemical; settings: determined by radiometric analysis; 177Lu-labeled conjugate
Experimental: Distribution Coefficient (Log D7.4) of the Conjugates The distribution coefficient was determined for each ^177Lu-labeled conjugate. In a 1.5 mL centrifuge tube, 0.5 mL of 1-octanol was added to 0.5 mL of PBS (pH 7.4) containing the radiolabeled peptide (500,000 cpm). The solution was vigorously vortexed for 2 minutes at room temperature and subsequently centrifuged to yield two immiscible layers. The radioactivity of the aliquots (100 μL) taken from each layer were quantified by the gamma counter and the Log D7.4 for each conjugates was calculated.

HT-29 cells [4] = test: HT-29 cell efflux study; type: cell-based, human; settings: at 24 hours
Experimental: The HT-29 Cell Efflux Studies
The ^177Lu radioconjugate was added to a sterilized 1.5 mL microcentrifuge tube containing HT-29 cells ˜1×10^6) suspended in 300 μL of cell culture medium, yielding a final radioactivity concentration of 100,000 cpm/100 μL, and was incubated for 2 hours at 37° C. After the removal of the culture medium, the cells were washed with fresh medium (5×500 μL) followed by the addition of 500 μL of fresh medium for the efflux assay. At 0, 1, 2, 4, 8, and 24 hour time interval, fresh medium (500 μL) was added to the tube to replace the old medium which was harvested for quantitative analysis of the effluxed radioactivity using a gamma counter. The cells were lysed with a 10% aqueous SDS solution at 24 hour to quantify the remaining internalized radioactivity. The effluxed fraction is expressed as a percentage of the total radioactivity added to the tube, which is the sum of the effluxed and internalized fractions obtained from the study.

[5] = target: T1, cathepsin B (human Liver) (Homo sapiens, UniProt P07858); test: Inhibition constant (Ki) of the compounds to cathepsin B; type: biochemical
T1 construct: from tissue; host or cells: human liver
Experimental: Determination of the Km and Vmax of Cathepsin B for Z-Arg-Arg-AMC
The solution of cathepsin B (human Liver) (50 μL, 2 nM) in assay buffer used above was mixed with 50 μL of solution of substrate Z-Arg-Arg-AMC in the assay buffer at different concentrations ([S]) (25 μM, 50 μM, 100 μM, 500 μM and 1 mM). The mixture was incubated at 37° C. and the fluorescence of the liberated aminomethylcoumarin at 460 nM using 355 nm excitation was measured at predetermined time points (0, 2, 4, 6, 8, and 10 minutes). The fluorescence intensity was plotted versus time and the reaction rates (v0) were calculated as the slope of the trend lines obtained by liner regression. Km and maximum reaction rate (Vmax-obs) was determined from the equation v0=Vmax[S]/(Km+[S]) and solved by nonlinear regression using GraphPad Prism 5. All measurements were in biological triplicate.
Determination of the Inhibition Constant (Ki) of the Compounds to Cathepsin B
The cathepsin B (human Liver) in assay buffer (25 μL) was mixed with the conjugate (25 μL) in 96-well plate. After the solution was mixed, the Z-Arg-Arg-AMC in assay buffer (50 μL) was added to the well, yielding a final cathepsin B concentration of 1 nM, conjugate concentration ([C]) of 15 nM or 5 μM, and substrate concentration ([S]) of 25 μM, 50 μM, 100 μM, 500 μM and 1 mM. The mixture was incubated at 37° C. and the fluorescence of the liberated aminomethylcoumarin at 460 nM using 355 nm excitation was measured at predetermined time points (0, 2, 4, 6, 8, and 10 minutes). The fluorescence intensity was plotted versus time with observed reaction rates (v0-obs) calculated as the slope of the trend lines obtained by liner regression. The observed rate constant (Kobs) and observed maximum reaction rate (Vmax-obs) was determined from the equation v0-obs=Vmax-obs [S]/(Kobs+[S]) and solved by nonlinear regression using GraphPad Prism 5. The Ki was calculated from the equation Kobs=Km (1+[C]/Ki). All measurements were in biological triplicate.

HT-29 xenograft tumors [6] = test: Tissue adduct formation of the radioconjugates (SDS-PAGE, centrifugal filtration); type: in vivo, mice; settings: autoradiographic SDS-PAGE, 24 hours post-injection
Experimental: The radioconjugates (800 μCi/mouse) were intravenously injected to the tumor bearing mice. The mice were sacrificed and the tumor, liver, and kidney were excised at 24 and 72 hours post-injection time points. The tumor and organs were homogenized in RIPA buffer (50 mg/100 μL) containing Halt™ protease inhibitor (100×, 1 μL) on ice and centrifuged to remove the pellet. An aliquot (20 μL) of the supernatant of the sample at 24 hours was mixed with Novex Tris-Glycine SDS sample buffer (2×, 20 μL) and incubated for further 10 minutes. The mixtures (20 μL) were loaded onto a Novex 16% tris-glycine gel and analyzed by SDS-PAGE at 110 V for 90 minutes. The autoradiograph of the SDS-PAGE was performed according to the same method in section 3.8.1. On the other hand, the aliquots (100 μL) of supernatants of all the tumor samples at 24 hours and 72 hours were individually centrifuged with Pierce™ protein concentrators (MWCO=10 kDa) to separate the low molecular weight radioactivity. The radioactivity in each fraction was quantified using a gamma counter to calculate the percentage of the cysteine proteases trapped radioconjugate in the total counts.

CatL = CatL (Homo sapiens, UniProt P07711); test: CatL inhibition constant; type: biochemical
Chain of CatL (P07711 114-333): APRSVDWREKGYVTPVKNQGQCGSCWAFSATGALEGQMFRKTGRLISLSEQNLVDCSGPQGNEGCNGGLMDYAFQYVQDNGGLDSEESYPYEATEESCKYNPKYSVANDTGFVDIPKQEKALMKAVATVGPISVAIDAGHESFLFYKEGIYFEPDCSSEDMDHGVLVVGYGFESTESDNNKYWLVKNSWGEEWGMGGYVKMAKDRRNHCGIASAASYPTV

HT-29 xenograft tumors [7] = test system: HT-29 xenograft tumors; set-up: species or system mice; settings: mouse
Experimental: Evaluation of Cysteine Proteases Trapping of the Cy 5-Labeled Conjugates
The Cy 5-labeled conjugates (40 nmol) were intravenously injected to the tumor bearing mice. The mice were sacrificed at 24 post-injection time points, and the heart, lung, liver, spleen, pancreas, kidney, intestine, brain, and tumor were excised and imaged using an IVIS spectrum system. The tumor and organs were homogenized in RIPA buffer (50 mg/100 μL) containing Halt™ protease inhibitor (100×, 1 μL) on ice and centrifuged to remove the pellet. An aliquot (18 μL) of the supernatant of the sample was added in NuPAGE® sample reducing reagent (10×, 2 μL) and denatured at 80° C. for 2 minutes. The sample was mixed with Novex Tris-Glycine S DS sample buffer (2×, 20 μL) and incubated for further 10 minutes. The mixtures (20 μL) were loaded onto a Novex 16% tris-glycine gel and analyzed by SDS-PAGE at 110 V for 90 minutes, followed by electro transferring onto PVDF membranes. The PVDF membranes were blocked by animal-free blocking buffer for 1 hour at room temperature and then were incubated with Cathepsin B (D1C7Y) XP® Rabbit mAb at 4° C. for overnight. Membranes was then incubated with Goat anti-Rabbit IgG (H+L) secondary antibody at room temperature for 1 hour and visualized using Typhoon FLA 9500.

GRPR = GRPR (Homo sapiens, UniProt P30550); test: GRPR affinity of GRPR-targeted agents; type: binding
Chain of GRPR (P30550 whole entry): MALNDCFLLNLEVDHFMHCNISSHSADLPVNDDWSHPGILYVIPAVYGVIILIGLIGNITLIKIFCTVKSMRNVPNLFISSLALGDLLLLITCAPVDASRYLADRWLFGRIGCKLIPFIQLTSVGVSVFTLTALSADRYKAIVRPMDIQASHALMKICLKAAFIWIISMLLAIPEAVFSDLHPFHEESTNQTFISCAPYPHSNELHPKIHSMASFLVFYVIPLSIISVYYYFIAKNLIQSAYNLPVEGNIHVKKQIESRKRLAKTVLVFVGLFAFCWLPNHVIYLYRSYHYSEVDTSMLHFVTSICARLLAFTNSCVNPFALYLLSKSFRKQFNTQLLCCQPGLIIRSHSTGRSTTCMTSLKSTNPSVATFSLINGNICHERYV

PC-3 tumor = settings: mouse, in vivo
CatB = CatB (Homo sapiens, UniProt P07858); test: CatB inhibition of GRPR-targeted agents; type: biochemical
Experimental: The Inhibition of Cathepsin B Activity by the Conjugates The phosphate buffer (0.1 M, pH=5.8) containing EDTA (1 mM), DTT (2.7 mM), and Brij®35 (0.03%) was prepared before the assay. […] The solution of cathepsin B (human Liver) in assay buffer (50 μL, 0.544 nM) was added to the mixture which was further incubated at 37° C. for 20 minutes. The fluorescence of the liberated aminomethylcoumarin at 460 nM using 355 nm excitation was measured and the IC50 of the cathepsin B inhibition versus the samples without the inhibitor was determined by nonlinear regression using GraphPad Prism 5.

## Cc1cc(O)cc(C)c1C[C@H](NC(=O)[C@@H]1CCCN1C(=O)[C@H](CCCNC(=N)N)NC(=O)[C@H](CCCNC(=N)N)N(C)C(=O)[C@@H]1CCCN1C(=O)[C@H](CCCCN)NC(=O)[C@@H](CO)NC(=O)[C@@H](CO)NC(=O)[C@@H](CO)NC(=O)[C@H](Cc1cn(CC(=O)N[C@H](CO)C(=O)N[C@H](CO)C(=O)N[C@H](CO)C(=O)NCC(=O)NCCCC[C@H](NC(=O)[C@H](Cc2ccccc2)NC(=O)OCc2ccccc2)C(=O)NCCc2ccccc2)nn1)NC(=O)CN1CCN(CC(=O)O)CCN(CC(=O)O)CCN(CC(=O)O)CC1)C(=O)N[C@H](C(=O)N[C@@H](CC(C)C)C(=O)O)C(C)(C)C [Compound 3b]
HT-29 cells [1]
  intracellular adduct formation (in words): no adduct formation
HT-29 xenograft tumors [2]
  decrease in tumor retention: 40%
[3]
  logD7.4: −2.01 ± 0.06^b
HT-29 cells [4]
  efflux: 69%
[5]
  CatB K1: ni
  Ki and inhibition IC50 to CatB (in words): did not demonstrate any inhibition
HT-29 xenograft tumors [6]
  in vivo adduct formation (in words): no signs of adduct formation

## Cc1cc(O)cc(C)c1C[C@H](NC(=O)[C@@H]1CCCN1C(=O)[C@H](CCCNC(=N)N)NC(=O)[C@H](CCCNC(=N)N)N(C)C(=O)[C@@H]1CCCN1C(=O)[C@H](CCCCN)NC(=O)[C@@H](CO)NC(=O)[C@@H](CO)NC(=O)[C@@H](CO)NC(=O)[C@H](Cc1cn(CCNC(=O)[C@H](CCCNC(=N)N)NC(=O)[C@H](CC(C)C)NC(=O)CCC(=O)O)nn1)NC(=O)CN1CCN(CC(=O)O)CCN(CC(=O)O)CCN(CC(=O)O)CC1)C(=O)N[C@H](C(=O)N[C@@H](CC(C)C)C(=O)O)C(C)(C)C [Ec]
[5]; Table 3
  CatB Ki: ni^b
CatL
  CatL Ki: ni^b

## Cc1cc(C)c(C(=O)OCC(=O)[C@H](CCCCNC(=O)CNC(=O)[C@@H](CO)NC(=O)[C@@H](CO)NC(=O)[C@@H](CO)NC(=O)Cn2cc(C[C@H](NC(=O)CCCCC[N+]3=C(/C=C/C=C/C=C4/N(C)c5ccccc5C4(C)C)C(C)(C)c4ccccc43)C(=O)N[C@H](CO)C(=O)N[C@H](CO)C(=O)N[C@H](CO)C(=O)N[C@@H](CCCCN)C(=O)N3CCC[C@H]3C(=O)N(C)[C@@H](CCCNC(=N)N)C(=O)N[C@@H](CCCNC(=N)N)C(=O)N3CCC[C@H]3C(=O)N[C@@H](Cc3c(C)cc(O)cc3C)C(=O)N[C@H](C(=O)N[C@@H](CC(C)C)C(=O)O)C(C)(C)C)nn2)NC(=O)[C@H](Cc2ccccc2)NC(=O)OCc2ccccc2)c(C)c1 [Compound 4a]
HT-29 xenograft tumors [7]
  tumor retention by ex vivo imaging (in words): greater than its counterpart 4b

## CSCC[C@H](NC(=O)[C@H](CC(C)C)NC(=O)[C@H](Cc1c[nH]cn1)NC(=O)CNC(=O)[C@@H](NC(=O)[C@H](C)NC(=O)[C@H](Cc1c[nH]c2ccccc12)NC(=O)[C@H](CCC(N)=O)NC(=O)CCOCCOCCOCCOCCNC(=O)[C@H](Cc1cn(CCNC(=O)[C@H](CCCNC(=N)N)NC(=O)[C@H](CC(C)C)NC(=O)CCC(=O)O)nn1)NC(=O)CN1CCN(CC(=O)O)CCN(CC(=O)O)CCN(CC(=O)O)CC1)C(C)C)C(N)=O [^177Lu-C-AG, metal not drawn]
GRPR
  IC50: 16.5 ± 3.3 nM
PC-3 tumor
  tumor retention: 32%
CatB
  IC50: > 200000 nM
